The text below walks through data of patent publication US11390606B2, “Pyridazinone compounds and uses thereof” (Edgewise Therapeutics, Inc., priority 2018, dated 2022).

The subject of assay [1] is embryos from zebrafish model of DMD. Conditions: Li and Amer, PLoSONE, 2015; cited from earlier work.
Assay [2] concerns the target T1, skeletal myofibrils (Rabbit Psoas), myosin ATPase activity.
T1 construct: Rabbit Psoas Prep 11 (0.25 mg/mL)
The experiment in a line: Skeletal Myofibril ATPase Assay. Type of assay: biochemical. Conditions: skeletal myofibrils (Rabbit Psoas 0.25 mg/mL), PK/LDH-coupled NADH absorbance at 340 nm. The procedure, abridged:
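PK-LDH coupled assay: ADP from myofibril ATPase drives NADH oxidation, read as A340 every 1.5-2 min over 45 min; rate taken as max−min absorbance. Normalized to 1% DMSO vehicle (100%) and fitted to a four-parameter logistic for IC50, bottom constrained ≥0. Buffer pH 7.0 (PIPES/CaCl2/EGTA).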

As for `Cc1ccc(S(=O)(=O)NCc2ccccc2)cc1` [BTS, N-benzyl-p-tolyl-sulfonamide], the “protection of muscles from pathological muscle derangement” value in assay [1] was “protect muscles from pathological muscle derangement”.
Turning to `CNc1ccc(-c2ccc(=O)n(Cc3ccc(Cl)cc3)n2)cc1` [Compound 123, 2-(4-chlorobenzyl)-6-(4-(methylamino)phenyl)pyridazin-3(2H)-one], the IC50 in assay [2] is < 10 µM.
Regarding `COc1ccc(Cn2nc(-c3ccc(SC)cc3)ccc2=O)cc1` [Compound 201, 2-(4-methoxybenzyl)-6-(4-(methylthio)phenyl)pyridazin-3(2H)-one], the IC50 in assay [2] is > 100 µM.
Same read-out and setting: next, `C=Cc1ccc(Cn2nc(-c3ccc(OC)cc3F)ccc2=O)cc1` [Compound 202, 6-(2-fluoro-4-methoxyphenyl)-2-(4-vinylbenzyl)pyridazin-3(2H)-one]: > 100 µM; `COc1ccc(-c2ccc(=O)n(Cc3ccccc3)n2)cc1` [Compound 211, 2-benzyl-6-(4-methoxyphenyl)pyridazin-3(2H)-one]: < 10 µM; `COc1ccc(-c2ccc(=O)n(Cc3ccc(Cl)cc3)n2)cc1` [Compound 212, 2-(4-chlorobenzyl)-6-(4-methoxyphenyl)pyridazin-3(2H)-one]: < 10 µM.
In the case of `CCOc1ccc(-c2ccc(=O)n(Cc3ccc(Cl)cc3)n2)cc1` [Compound 213, 2-(4-chlorobenzyl)-6-(4-ethoxyphenyl)pyridazin-3(2H)-one], the IC50 in assay [2] was < 10 µM.
Turning to `CCCOc1ccc(-c2ccc(=O)n(Cc3ccc(Cl)cc3)n2)cc1` [Compound 218, 2-(4-chlorobenzyl)-6-(4-propoxyphenyl)pyridazin-3(2H)-one], the IC50 in assay [2] is < 10 µM.
The same measure, in the same setting: next, `COc1ccc(Cn2nc(-c3ccc(Cl)cc3)ccc2=O)cc1` [Compound 235, 6-(4-chlorophenyl)-2-(4-methoxybenzyl)pyridazin-3(2H)-one]: < 10 µM; `Cc1ccc(-c2ccc(=O)n(Cc3ccc(F)cc3)n2)cc1` [Compound 236, 2-(4-fluorobenzyl)-6-(p-tolyl)pyridazin-3(2H)-one]: < 10 µM; `COc1ccc(Cn2nc(-c3ccc(Br)cc3)ccc2=O)cc1` [Compound 237, 6-(4-bromophenyl)-2-(4-methoxybenzyl)pyridazin-3(2H)-one]: < 10 µM.
Compound `N#Cc1ccc(Cn2nc(-c3ccc(Br)cc3)ccc2=O)cc1` [Compound 238, 4-((3-(4-bromophenyl)-6-oxopyridazin-1(6H)-yl)methyl)benzonitrile] came in with an IC50 in assay [2] of 10 to 100 µM.
On to `O=c1ccc(-c2ccc(Br)cc2)nn1Cc1ccccc1` [Compound 239, 2-benzyl-6-(4-bromophenyl)pyridazin-3(2H)-one], for which, in assay [2], the IC50 is < 10 µM.
The same measure, in the same setting: next, `COc1ccc(Cn2nc(-c3ccc(F)cc3)ccc2=O)cc1` [Compound 240, 6-(4-fluorophenyl)-2-(4-methoxybenzyl)pyridazin-3(2H)-one]: 10 to 100 µM.
For `O=c1ccc(-c2ccc(F)cc2)nn1Cc1cccc(C(F)(F)F)c1` [Compound 241, 6-(4-fluorophenyl)-2-(3-(trifluoromethyl)benzyl)pyridazin-3(2H)-one], in assay [2], the IC50 is > 100 µM.
As to `O=c1ccc(-c2ccc(F)cc2)nn1Cc1cccc(F)c1` [Compound 242, 2-(3-fluorobenzyl)-6-(4-fluorophenyl)pyridazin-3(2H)-one], the IC50 in assay [2] is < 10 µM.
Take `O=c1ccc(-c2ccc(F)cc2)nn1Cc1ccccc1F` [Compound 243, 2-(2-fluorobenzyl)-6-(4-fluorophenyl)pyridazin-3(2H)-one]: the IC50 in assay [2] was 10 to 100 µM.
In the case of `O=c1ccc(-c2ccc(F)cc2)nn1Cc1ccc(F)cc1` [Compound 244, 2-(4-fluorobenzyl)-6-(4-fluorophenyl)pyridazin-3(2H)-one], the IC50 in assay [2] was in the range of 10 to 100 µM.
For `O=c1ccc(-c2ccc(F)cc2)nn1Cc1ccc(Cl)cc1` [Compound 300, 2-(4-chlorobenzyl)-6-(4-fluorophenyl)pyridazin-3(2H)-one], the IC50 in assay [2] was < 10 µM.
With `Cc1ccc(-c2ccc(=O)n(Cc3ccc(Cl)cc3)n2)cc1` [Compound 301, 2-(4-chlorobenzyl)-6-(p-tolyl)pyridazin-3(2H)-one], the IC50 in assay [2] is < 10 µM.
For `O=c1ccc(-c2ccc(Cl)cc2)nn1Cc1ccccc1` [Compound 302, 2-benzyl-6-(4-chlorophenyl)pyridazin-3(2H)-one], in assay [2], the IC50 was < 10 µM.
Regarding `O=c1ccc(-c2ccc(Cl)cc2)nn1Cc1ccc(Cl)cc1` [Compound 303, 2-(4-chlorobenzyl)-6-(4-chlorophenyl)pyridazin-3(2H)-one], the IC50 in assay [2] was < 10 µM.
Turning to `O=c1ccc(-c2ccc(Cl)nc2)nn1Cc1ccc(Cl)cc1` [Compound 304, 2-(4-chlorobenzyl)-6-(6-chloropyridin-3-yl)pyridazin-3(2H)-one], the IC50 in assay [2] was < 10 µM.
With `O=c1ccc(-c2ccc(Cl)cc2)nn1Cc1ccc(C(F)(F)F)cc1` [Compound 305, 6-(4-chlorophenyl)-2-(4-(trifluoromethyl)benzyl)pyridazin-3(2H)-one], the IC50 in assay [2] is > 100 µM.
Regarding `O=c1ccc(-c2ccc(Cl)cc2)nn1Cc1ccc(F)cc1` [Compound 306, 6-(4-chlorophenyl)-2-(4-fluorobenzyl)pyridazin-3(2H)-one], the IC50 in assay [2] was < 10 µM.
Still for that read-out and setting: next, `O=c1ccc(-c2ccc(Cl)cc2)nn1Cc1cccc(Cl)c1` [Compound 307, 2-(3-chlorobenzyl)-6-(4-chlorophenyl)pyridazin-3(2H)-one]: < 10 µM; `Cc1ccccc1Cn1nc(-c2ccc(Cl)cc2)ccc1=O` [Compound 308, 6-(4-chlorophenyl)-2-(2-methylbenzyl)pyridazin-3(2H)-one]: < 10 µM.
Same read-out and setting: next, `O=c1ccc(-c2ccc(Cl)cc2)nn1Cc1ccccc1F` [Compound 309, 6-(4-chlorophenyl)-2-(2-fluorobenzyl)pyridazin-3(2H)-one]: < 10 µM; `O=c1ccc(-c2ccc(Cl)cc2)nn1Cc1ccccc1Cl` [Compound 310, 2-(2-chlorobenzyl)-6-(4-chlorophenyl)pyridazin-3(2H)-one]: < 10 µM; `Cc1ccc(Cn2nc(-c3ccc(Cl)cc3)ccc2=O)cc1` [Compound 311, 6-(4-chlorophenyl)-2-(4-methylbenzyl)pyridazin-3(2H)-one]: < 10 µM.
Take `CCCc1ccc(-c2ccc(=O)n(Cc3ccc(Cl)cc3)n2)cc1` [Compound 312, 2-(4-chlorobenzyl)-6-(4-propylphenyl)pyridazin-3(2H)-one]: the IC50 in assay [2] was < 10 µM.
Still for that read-out and setting: next, `CCc1ccc(-c2ccc(=O)n(Cc3ccc(Cl)cc3)n2)cc1` [Compound 313, 2-(4-chlorobenzyl)-6-(4-ethylphenyl)pyridazin-3(2H)-one]: < 10 µM; `Cc1cccc(Cn2nc(-c3ccc(Cl)cc3)ccc2=O)c1` [Compound 314, 6-(4-chlorophenyl)-2-(3-methylbenzyl)pyridazin-3(2H)-one]: < 10 µM; `C[C@@H](c1ccccc1)n1nc(-c2ccc(Cl)cc2)ccc1=O` [Compound 315, (S)-6-(4-chlorophenyl)-2-(1-phenylethyl)pyridazin-3(2H)-one]: > 100 µM.
The same measure, in the same setting: next, `COc1cc(F)ccc1-c1ccc(=O)n(Cc2ccc(Cl)cc2)n1` [Compound 316, 2-(4-chlorobenzyl)-6-(4-fluoro-2-methoxyphenyl)pyridazin-3(2H)-one]: > 100 µM; `O=c1ccc(-c2ccc(Cl)cc2)nn1Cc1cccc(F)c1` [Compound 317, 6-(4-chlorophenyl)-2-(3-fluorobenzyl)pyridazin-3(2H)-one]: < 10 µM.

Broadly, the IC50 is the concentration at which inhibition is half-maximal. Lower therefore signals inhibition by little substance.
